Assay results reported in patent US4798841A, “Tetrahydropyridine oxime cholinergic agents and method of treatment” (Warner-Lambert Company, priority 1987, dated 1989).
Where two headings read alike, the source gives them in different places.

Legend:
[1] = Davis et al. 1983; cited from earlier work
muscarinic binding site [2] = assay: RQNB screening assay: inhibition of radiolabeled quinuclidinyl benzilate (muscarinic antagonist) binding in rat cerebral cortex tissue; conditions: for % Inhib. RQNB: @ 10^-6 M; for IC50: rat cerebral cortex, radiolabeled quinuclidinyl benzilate
muscarinic binding site [3] = assay: RCMD screening assay: inhibition of radiolabeled cis-methyldioxolane (muscarinic agonist) binding in rat cerebral cortex tissue; conditions: for % Inhib. RCMD: @ 10^-7 M; for IC50: rat cerebral cortex, radiolabeled cis-methyldioxolane
Description: Similarly, in the RCMD screening assay, described more fully by T. W. Vickeroy et al., J. Pharmacol. and Exp. Ther., 229 (3): 747 (1984), rat cerebral cortex tissue was treated with radiolabeled cis-methyldioxolane, a known muscarinic binding site agonist. The percent inhibition at given concentrations or concentrations of test compounds required to inhibit 50% of the binding of this muscarinic agonist were then determined.

laboratory rats = assay: Scopolamine induced swimming test (SIS); format: in vivo, rat; conditions: for minimal effective dose: rat, read-out: Minimal Effective Dose for Reversal of Scopolamine-Induced Swimming Hyperactivity; for Reversal of scopolamine-induced swimming hyperactivity: result in words
Description: In the scopolamine induced swimming test (SIS), the ability of representative compounds of the present invention to reverse the hyperactive swimming behavior of laboratory rats given scopolamine was assessed. In this test, untreated rats will generally swim between 20 to 30 meters during a five minute test period. […] The effect of scopolamine is centrally mediated; the ability of a test compound to reverse the hyperactive swimming behavior induced by scopolamine is thus a measure of the central cholinergic activity of the compound.

male Swiss-Webster mice = assay: Antiwrithing (AW) test, acetic acid induced writhing; format: in vivo; conditions: ip; intraperitoneal dosing; mouse; acetic acid 0.6%; read-out: ED50 (dose necessary to suppress writhing by 50% relative to vehicle controls)
Description: The antiwrithing (AW) test provides preliminary assessment of compounds with potential analgesic activity. The test is performed with male Swiss-Webster mice. Compounds are administered in aqueous 0.2% methylcellulose or other appropriate vehicles in volumes of 10 ml/kg. Dosages represent active moiety.
Acetic acid (0.6%, 10 ml/kg) is injected intraperitoneally after administration of the compound. writhing movements are counted for five minutes starting seven minutes after the acetic acid injection. Data are expressed as ED50 values, where the ED50 is the dose necessary to suppress writhing by 50% relative to vehicle controls. ED50 values are calculated by nonlinear regression analysis.

[4] = system: patients clinically diagnosed as having presenile primary degenerative dementia; conditions: double blind study; Christie et al. 1981; cited from earlier work
[5] = system: aged humans and non-human primates with decreased cognition; conditions: result in words; cited from earlier work

| Structure (SMILES) | % Inhib. RQNB (muscarinic binding site [2]) [%] | % Inhib. RCMD (muscarinic binding site [3]) [%] | minimal effective dose (laboratory rats; sc, Subcutaneous) [mg/kg] | IC50 (muscarinic binding site [2]) [nM] | IC50 (muscarinic binding site [3]) [nM] | also measured |
| --- | --- | --- | --- | --- | --- | --- |
| Nc1ccncc1N [3,4-diaminopyridine] |  |  |  |  |  | Age-related cognitive deficits [1]: ameliorate age-related cognitive deficits |
| CCN1CCC=C(C(C)=NO)C1 [Ethyl 3-Methyl, 1-(1-Ethyl-1,2,5,6-tetrahydro-3-pyridinyl)ethanone oxime] | 23 | 21 |  |  |  |  |
| CC(=NO)C1=CCCNC1 [Hydrogen 3-Methyl, 1-(1,2,5,6-Tetrahydro-3-pyridinyl)ethanone oxime] | 24 | 85 | 3.2 |  |  |  |
| CC(C)/C(=N\O)C1=CCCN(C)C1 [Methyl 3-(1-Methylethyl) (anti), 2-Methyl-1-(1,2,5,6-tetrahydro-1-methyl-3-pyridinyl)-1-propanone oxime] | 10 | 10 |  |  |  |  |
| CC(C)/C(=N/O)C1=CCCN(C)C1 [Methyl 3-(1-Methylethyl) (syn), 2-Methyl-1-(1,2,5,6-tetrahydro-1-methyl-3-pyridinyl)-1-propanone oxime] | 35 | 43 |  |  |  |  |
| C#CCCC(=NO)C1=CCCN(C)C1 [Methyl 3-(CH2 CH2 C CH)] |  |  |  | 1000 | 7 |  |
| COCCCC(=NO)C1=CCCN(C)C1 [Methyl 3-(CH2 CH2 CH2 OCH3), 4-Methoxy-1-(1,2,5,6-tetrahydro-1-methyl-3-pyridinyl)-1-butanone Oxime] |  |  | 32 | 2500 | 30 |  |
| C=CCCC(=NO)C1=CCCN(C)C1 [Methyl 3-(CH2 CH2 CHCH2), 1-(1,2,5,6-Tetrahydro-1-methyl-3-pyridinyl)-4-penten-1-one oxime] |  |  | 32 | 600 | 40 |  |
| CN1CCC=C(C(CCc2ccccc2)=NO)C1 [Methyl 3-(CH2 CH2Ph), 3-Phenyl-1-(1,2,5,6-tetrahydro-1-methyl-3-pyridinyl)-1-propanone oxime] |  |  | 32 |  |  |  |
| CN1CCC=C(C(COCc2ccccc2)=NO)C1 [Methyl 3-(CH2 OCH2 Ph)] | 38 | 30 |  |  |  |  |
| CCC(=NO)C1=CCCN(C)C1 [Methyl 3-Ethyl, 1-(1,2,5,6-Tetrahydro-1-methyl-3-pyridinyl)-1-propanone oxime] |  |  | 32 | 2000 | 50 |  |
| CC(=NO)C1=CCCN(C)C1 [Methyl 3-Methyl, 1-(1,2,5,6-Tetrahydro-1-methyl-3-pyridinyl)-ethanone oxime] |  |  | 3.2 | 4650 | 19 | ED50 (male Swiss-Webster mice): 1.1 mg/kg |
| CN1CCC=C(C(=NO)c2ccccc2)C1 [Methyl 3-Phenyl, Phenyl(1,2,5,6-tetrahydro-1-methyl-3-pyridinyl)methanone oxime] | 51 | 39 |  |  |  |  |
| CN1CCC=C(C(CCc2ccccc2)=NO)C1 [Methyl 3-Phenylmethyl] | 86 | 66 |  |  |  |  |
| CCCCC(=NO)C1=CCCN(C)C1 [Methyl 3-n-Butyl, 1-(1,2,5,6-Tetrahydro-1-methyl-3-pyridinyl)-1-pentanone oxime] |  |  | 32 | 300 | 20 |  |
| CC(=NO)C1=CCN(C)CC1 [Methyl 4-Methyl] |  |  | 3.2 | 10000 | 490 |  |
| CN1CCC=C(C=NO)C1 [Methyl Hydrogen, 1,2,5,6-Tetrahydro-1-methyl-3-pyridinecarboxaldehyde oxime] | 8 | 22 | 32 |  |  |  |
| COC(=O)C1=CCCN(C)C1 [arecoline, methyl ester of 1,2,5,6-tetra-hydro-1-methyl-3-pyridinecarboxylic acid, reference compound] |  |  |  |  |  | Test of picture recognition [4]: Significant improvement; Reversal of scopolamine-induced swimming hyperactivity (laboratory rats): can be reversed |
| CCCN1CCC=C(C(CCc2ccccc2)=NO)C1 [n-Propyl 3-(CH2 CH2Ph), 3-Phenyl-1-(1,2,5,6-tetrahydro-1-propyl-3-pyridinyl)-1-propanone oxime] |  |  |  |  |  | minimal effective dose (laboratory rats; Oral): 3.2 mg/kg |
| CCCN1CCC=C(C(CCc2ccccc2)=NO)C1 [n-Propyl 3-Phenylmethyl] | 63 | 3 |  |  |  |  |
| CNC(=O)Oc1ccc2c(c1)[C@]1(C)CCN(C)[C@@H]1N2C [physostigmine, reference compound] |  |  |  |  |  | Reversal of scopolamine-induced swimming hyperactivity (laboratory rats): can be reversed; Memory in aged humans and non-human primates with decreased cognition [5]: improved memory |
| CN1[C@@H]2C[C@@H](OC(=O)[C@H](CO)c3ccccc3)C[C@H]1[C@@H]1O[C@@H]12 [scopolamine, reference compound] |  |  |  |  |  | Increase of swimming distance above base-line (laboratory rats; scopolamine 0.1 mg/kg, five minute test period): 75-125% |
